In PMC9093036, “Discovery of METTL3 Small Molecule Inhibitors by Virtual Screening of Natural Products” (Frontiers in Pharmacology, 2022):

Target: T1, METTL3 (Homo sapiens, UniProt Q86U44)
T1 construct: METTL3-METTL14 complex (wild type); with METTL14
Test: in vitro methyltransferase assay with omission of components, m6A by LC-MS/MS
Type: biochemical
Text: in vitro methyltransferase assay with omission of components, m6A by LC-MS/MS on METTL3 | METTL[…]TL14 (wild type), SAM, and RNA are essential for m^6A formation

T1 sequence (Q86U44 2-580): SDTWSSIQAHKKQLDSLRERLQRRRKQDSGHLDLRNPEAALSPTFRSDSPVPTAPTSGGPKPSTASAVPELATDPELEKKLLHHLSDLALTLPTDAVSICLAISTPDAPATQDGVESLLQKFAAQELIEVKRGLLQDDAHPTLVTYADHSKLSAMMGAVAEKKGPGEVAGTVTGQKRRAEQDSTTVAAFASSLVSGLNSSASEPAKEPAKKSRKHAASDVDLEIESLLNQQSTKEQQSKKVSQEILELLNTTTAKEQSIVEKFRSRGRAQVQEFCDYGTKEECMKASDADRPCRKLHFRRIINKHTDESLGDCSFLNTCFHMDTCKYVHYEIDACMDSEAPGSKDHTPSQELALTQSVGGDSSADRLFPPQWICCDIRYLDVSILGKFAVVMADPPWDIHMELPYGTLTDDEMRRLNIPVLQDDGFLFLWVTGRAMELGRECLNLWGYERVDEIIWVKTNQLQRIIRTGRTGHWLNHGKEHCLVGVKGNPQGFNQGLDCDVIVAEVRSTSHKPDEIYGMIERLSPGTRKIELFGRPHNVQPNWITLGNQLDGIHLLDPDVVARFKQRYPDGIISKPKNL
T1 sequence (Q9HCE5 whole entry partner): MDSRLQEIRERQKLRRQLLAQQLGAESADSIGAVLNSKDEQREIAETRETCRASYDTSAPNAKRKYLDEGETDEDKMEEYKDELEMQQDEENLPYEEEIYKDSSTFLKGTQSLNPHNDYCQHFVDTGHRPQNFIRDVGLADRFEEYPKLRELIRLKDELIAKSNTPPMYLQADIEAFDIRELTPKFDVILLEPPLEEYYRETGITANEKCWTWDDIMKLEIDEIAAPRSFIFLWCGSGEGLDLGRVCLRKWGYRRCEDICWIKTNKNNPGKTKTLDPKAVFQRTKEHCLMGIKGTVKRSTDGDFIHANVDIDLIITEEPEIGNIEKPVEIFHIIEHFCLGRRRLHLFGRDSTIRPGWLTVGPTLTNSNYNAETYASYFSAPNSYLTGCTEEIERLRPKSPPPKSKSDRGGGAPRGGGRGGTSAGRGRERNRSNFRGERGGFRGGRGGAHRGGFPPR

## C[S+](CC[C@H](N)C(=O)[O-])C[C@H]1O[C@@H](n2cnc3c(N)ncnc32)[C@H](O)[C@@H]1O (stereo partly shown) [SAM]
  components essential for m6A formation: METTL3-METTL14 (wild type), SAM, and RNA are essential for m^6A formation
